Assay results from EPA's ToxValDB 9.5 (doi:10.2903/j.efsa.2015.3999).
Where “and” joins values, the source holds several entries; their conditions need not be identical. Equal values may be shown once.

Tests used:
Folsomia candida = conditions: chronic/long-term
Canidae = conditions: subchronic; duration: 90 days; oral; Dog Other; organ weight
Apis mellifera = conditions: acute, mortality
Rattus norvegicus = conditions: for LD50: acute, mortality
Anas platyrhynchos = conditions: reproductive
Daphnia magna = conditions: chronic/long-term; duration: 21 days; reproduction

`COCC(=O)N(c1c(C)cccc1C)[C@H](C)C(=O)OC` [Metalaxyl-M] gave an NOEC (Folsomia candida) of 125 mg/kg, an NOAEL (Canidae) of 8 mg/kg-day and an LC50 (Colinus virginianus; acute, oral, diet, mortality) of over 5620 mg/kg. The LD50 (Colinus virginianus; acute, oral, mortality) was 1420 mg/kg-day and 981 mg/kg-day and 1180 mg/kg-day, the NOEL (Colinus virginianus; reproduction developmental) was 8.4 mg/kg-day and the LC50 (Tagia sp.; acute, duration: 14 days, mortality) was 830 mg/kg. The NOEC (Tagia sp.; chronic/long-term, duration: 8 weeks) was 35.6 mg/kg, the LD50 (Apis mellifera; dermal) was over 100 µg/piece and the LD50 (Apis mellifera; oral, unspecified) was over 97.3 µg/piece. For the same molecule, the LC50 (Oncorhynchus mykiss; acute, duration: 96 hours, mortality) was over 100 µg/mL, the NOEC (Oncorhynchus mykiss; chronic/long-term, duration: 28 days, growth) was 50 mg/L and the LD50 (Rattus norvegicus; F) was 375 mg/kg-day. For the same molecule, the LD50 (Rattus norvegicus; M) was 953 mg/kg-day, the NOAEL (Rattus norvegicus; reproduction developmental, body weight) was 50 mg/kg-day and the NOEL (Anas platyrhynchos) was 117 mg/kg-day. It also gave an NOEC (Daphnia magna) of 25 mg/L.
